This passage reports Ki results from US7553861B2, “Dipeptidyl peptidase-IV inhibitors” (Alantos Pharmaceuticals Holding, Inc., priority 2005, dated 2009).

In general, Ki refers to the dissociation constant of the complex between target and ligand, obtained from inhibition or displacement.

The target in the test is T1, DPP-IV (Homo sapiens, UniProt P27487).
T1 construct: purchased R&D Systems GmbH, Germany
Put plainly: Assay for determining DP-IV inhibition (fluorometric, Gly-Pro-AMC substrate). The class given is biochemical. The settings on record: Inhibition of DPP-IV, K(i) calculated from IC(50) with IC(50)=K(i)(1+[S]/Km), pH 8.0. On the procedure:
The inhibitory activity of compounds against DPP-IV can be determined by in vitro assay systems, which are themselves well established in the art. The assay results given in Table 5 were obtained according to the following method, employing a modified version of the assay described by Leiting et al., in an article entitled “Catalytic properties and inhibition of proline-specific dipeptidyl peptidases II, IV and VII” in Biochem. J. Vol. 371, pages 525-532 (2003):
DPP-IV activity was determined fluorometrically with Gly-Pro-AMC (where AMC stands for 7-amido-4-methylcoumarin, Bachem AG, Switzerland) as substrate. The reaction mixture contained 10 μl of 1 ng/μl DPP-IV (R&D Systems GmbH, Germany) and 80 μl of 25 mM Tris/HCl buffer, pH 8.0. Compounds were supplied as DMSO stock solutions and diluted in assay buffer to a maximal DMSO concentration of 1% in the assay. Prior to start of the reaction, the mixture was incubated for 30 min at room temperature. The reaction was started by addition of 10 μl of 100 μM substrate solution.
The fluorescence intensity was measured at excitation and emission wavelengths of 355 and 460 nm, respectively, in a FluoStar Galaxy Multiwell Plate (BMG Labtech, Germany). Fluorescence was determined 3 and 4 minutes after start of reaction and increase in fluorescence was used for determination of enzymatic activity. IC(50) values of tested compounds were determined via plotting enzymatic activity versus concentration of test compound and determining the concentration of test compound which yields a 50% inhibition of enzymatic activity.
K(i) values were calculated using the Michaelis-Menten equation for competitive inhibition: IC(50)=K(i)(1+[S]/Km)

T1 sequence (P27487 whole entry): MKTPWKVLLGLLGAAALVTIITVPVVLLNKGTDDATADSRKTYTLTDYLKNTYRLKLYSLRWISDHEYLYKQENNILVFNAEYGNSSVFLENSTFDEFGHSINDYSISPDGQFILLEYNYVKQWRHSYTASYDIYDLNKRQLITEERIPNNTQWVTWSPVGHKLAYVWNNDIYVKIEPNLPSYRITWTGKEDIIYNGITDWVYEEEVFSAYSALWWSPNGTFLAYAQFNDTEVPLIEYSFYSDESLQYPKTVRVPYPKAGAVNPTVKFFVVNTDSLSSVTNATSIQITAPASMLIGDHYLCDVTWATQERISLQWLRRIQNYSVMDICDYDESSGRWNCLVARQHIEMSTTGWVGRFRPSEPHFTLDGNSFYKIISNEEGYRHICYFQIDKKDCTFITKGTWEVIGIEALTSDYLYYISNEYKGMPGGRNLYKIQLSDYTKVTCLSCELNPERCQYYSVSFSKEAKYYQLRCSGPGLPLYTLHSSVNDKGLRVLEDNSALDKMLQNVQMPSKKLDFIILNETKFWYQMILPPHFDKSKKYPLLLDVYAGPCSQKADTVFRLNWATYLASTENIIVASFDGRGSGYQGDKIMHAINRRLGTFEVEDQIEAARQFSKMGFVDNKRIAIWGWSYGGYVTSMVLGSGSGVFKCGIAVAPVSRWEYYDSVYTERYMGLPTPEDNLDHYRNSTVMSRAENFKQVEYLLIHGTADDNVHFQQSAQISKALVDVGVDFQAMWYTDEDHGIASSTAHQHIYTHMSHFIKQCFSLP

As for `N#C[C@@H]1CCCN1C(=O)[C@@H](N)CN1C(=O)[C@@H]2C[C@H]1CN2S(=O)(=O)c1cccc(F)c1` [Example 65], the inhibitory constant (Ki) is 6 to 50 nM. Regarding `N#C[C@@H]1CCCN1C(=O)[C@@H](N)CN1C(=O)[C@@H]2C[C@H]1CN2S(=O)(=O)c1cccs1` [Example 66], the inhibitory constant (Ki) is 6 to 50 nM. On to `N#C[C@@H]1CCCN1C(=O)[C@@H](N)CN1C(=O)[C@@H]2C[C@H]1CN2S(=O)(=O)c1ccsc1` [Example 67], for which the inhibition constant (Ki) is < 6 nM.

In the case of `COC(=O)c1sccc1S(=O)(=O)N1C[C@@H]2C[C@H]1C(=O)N2C[C@H](N)C(=O)N1CCC[C@H]1C#N` [Example 68], the inhibitory constant (Ki) was 6 to 50 nM.

For the compound `N#C[C@@H]1CCCN1C(=O)[C@@H](N)CN1C(=O)[C@@H]2C[C@H]1CN2C(=O)c1cccs1` [Example 69], the inhibition constant (Ki) was 6 to 50 nM. As to `N#C[C@@H]1CCCN1C(=O)[C@@H](N)CN1C(=O)[C@@H]2C[C@H]1CN2C(=O)Cc1cccs1` [Example 70], the Ki is 6 to 50 nM. Regarding `N#C[C@@H]1CCCN1C(=O)[C@@H](N)CN1C(=O)[C@@H]2C[C@H]1CN2C(=O)c1cnccn1` [Example 71], the Ki was 6 to 50 nM. Regarding `N#C[C@@H]1CCCN1C(=O)[C@@H](N)CN1C(=O)[C@@H]2C[C@H]1CN2C(=O)CC1c2ccccc2C=Cc2ccccc21` [Example 72], the Ki is < 6 nM.

In the case of `N#C[C@@H]1CCCN1C(=O)[C@@H](N)CN1C(=O)[C@@H]2C[C@H]1CN2C(=O)OCC1c2ccccc2-c2ccccc21` [Example 73], the inhibition constant (Ki) is 6 to 50 nM. On to `Cc1ccc(S(=O)(=O)NC(=O)N2C[C@@H]3C[C@H]2C(=O)N3C[C@H](N)C(=O)N2CCC[C@H]2C#N)cc1` [Example 74], for which the Ki is 51 to 500 nM. `CC(C)(C)NC(=O)N1C[C@@H]2C[C@H]1C(=O)N2C[C@H](N)C(=O)N1CCC[C@H]1C#N` [Example 75]: the Ki is 51 to 500 nM. Next, `N#C[C@@H]1CCCN1C(=O)[C@@H](N)CN1C[C@@H]2C[C@H]1CN2C(=O)Cc1cccs1` [Example 76]: 6 to 50 nM.

As to `N#C[C@@H]1CCCN1C(=O)[C@@H](N)CN1C[C@@H]2C[C@H]1CN2S(=O)(=O)c1cccc(F)c1` [Example 77], the Ki is < 6 nM. For `N#C[C@@H]1CCCN1C(=O)[C@@H](N)CN1C[C@@H]2C[C@H]1CN2c1cccc(F)c1` [Example 78], the Ki is 6 to 50 nM.
